Test results as given in patent US20080318954A1, “Compounds” (Cyclacel Limited, priority 2004, published 2008).

Legend:
GSK-3β = molecular target: T1, GSK-3β (Oryctolagus cuniculus, UniProt G1T8E2); assay: GSK-3β kinase assay; format: biochemical, rabbit; conditions: read-out: Kinase inhibition IC50 GSK3β
T1 construct: isolated from a strain of E. coli that carries a clone expressing GSK-3β derived from a rabbit skeletal muscle cDNA library [34]
Procedure: GSK-3 was obtained from New England Biolabs (UK) Ltd., Hitchin, Herts. The recombinant enzyme was isolated from a strain of E. coli that carries a clone expressing GSK-3β derived from a rabbit skeletal muscle cDNA library. Inhibition of GSK-3 function was assessed by measurement of phosphorylation of CREB phosphopeptide KRREILSRRPpSYR in the presence of test compounds. Using a 96-well assay format, GSK3 (7.5 U) was incubated for 30 min at 30° C. in a total volume of 25 μL in 20 mM MOPS pH 7.2, 25 mM β-glycerophosphate, 5 mM EGTA, 1 mM DTT, 1 mM […], 40 μM CREB peptide, 15 mM MgCl2 and 100 μM ATP (containing 0.25 μCi [γ-^32P]-ATP) in the presence of varying concentrations of test compound. The samples were transferred to 96-well p81 filter plates (Whatman Polyfiltronics, Kent, UK), and the plates were washed 4 times with 200 μL/well of 75 mM aq orthophosphoric acid. Scintillation liquid (50 μL) was added to each well, and incorporated radioactivity for each sample was determined using a scintillation counter (TopCount, Packard Instruments, Pangbourne, Berks, UK).

CDK2/cyclin E = molecular target: T2, CDK2/cyclin E (Homo sapiens, UniProt P24941); assay: CDK/cyclin kinase assay, CDK2/cyclin E; format: biochemical; conditions: for inhibition at 1 µM: primary screening at 1 μM; for IC50: read-out: Kinase inhibition IC50 CDK2/E
T2 construct: His6 (N); made in house; host or cells: Sf9 insect cells (baculovirus)
Procedure: (§1) CDK4/cyclin D1, CDK1/cyclin B, CDK2/cyclin E, CDK2/cyclin A, CDK9/cyclin T1 and CDK7/cyclin H, all with a His6 tag on the N-terminus, were expressed in Sf9 insect cells using an appropriate baculovirus construct. Sf9 culture (1.6×10^6 cells/mL) was infected (MOI of 3) for two days. The cells were harvested by low speed centrifugation and the protein was purified from the insect cell pellet by metal affinity chromatography. In short: the insect cell pellet was lysed in Buffer A (10 mM Tris-HCl pH 8.0, 150 mM NaCl, 0.02% NP-40, 5 mM β-mercaptoethanol, 20 mM NaF, 1 mM Na3VO4, and Sigma Protease Inhibitor Cocktail) by sonication. The soluble fraction was cleared by centrifugation and loaded onto Ni-NTA-Agarose (Qiagen). Non-bound protein was washed off with 300 mM NaCl, 5-15 mM imidazole in buffer A and the bound protein was eluted with buffer A supplemented with 250 mM imidazole. The purified proteins were extensively dialyzed against storage buffer (20 mM HEPES pH 7.4, 50 mM NaCl, 2 mM DTT, 1 mM EDTA, 1 mM EGTA, 0.02% NP-40, 10% v/v glycerol) and stored at −70° C.
(§2) Compounds were investigated for their CDK2/cyclin E, CDK2/cyclin A, CDK1/cyclin B, and CDK4/cyclin D1 inhibitory activity. His6-tagged recombinant human cyclin-dependent kinases CDK1/cyclin B1, CDK2/cyclin E, CDK2/cyclin A, and CDK4 were expressed in sf9 insect cells using a baculovirus expression system. Recombinant cyclin D1 was expressed in E. coli. Proteins were purified by metal chelate affinity chromatography to greater than 90% homogeneity. Kinase assays were performed in 96-well plates using recombinant CDK/cyclins. Assays were performed in assay buffer (25 mM β-glycerophosphate, 20 mM MOPS, 5 mM EGTA, 1 mM DTT, 1 mM […], pH 7.4), into which were added 2-4 μg of active enzyme with appropriate substrates (purified histone H1 for CDK1 and CDK2, recombinant GST-retinoblastoma protein (residues 773-928) for CDK4). The reaction was initiated by addition of Mg/ATP mix (15 mM MgCl2+100 μM ATP with 30-50 kBq per well of [γ-^32P]-ATP) and mixtures incubated for 10-45 min, as required, at 30° C. Reactions were stopped on ice, followed by filtration through p81 or GF/C filterplates (for CDK4) (Whatman Polyfiltronics, Kent, UK). After washing 3 times with 75 mM aq orthophosphoric acid, plates were dried, scintillant added and incorporated radioactivity measured in a scintillation counter (TopCount, Packard Instruments, Pangbourne, Berks, UK). Compounds for kinase assays were made up as 10 mM stocks in DMSO and diluted into 10% DMSO in assay buffer. Data was analysed using curve-fitting software (GraphPad Prism version 3.00 for Windows, GraphPad Software, San Diego Calif. USA) to determine IC50 values (concentration of test compound which inhibits kinase activity by 50%).

CDK2/cyclin A = molecular target: T3, CDK2/cyclin A (Homo sapiens, UniProt P24941); assay: CDK/cyclin kinase assay, CDK2/cyclin A; format: biochemical; conditions: for inhibition at 1 µM: primary screening at 1 μM; for IC50: read-out: Kinase inhibition IC50 CDK2/A
T3 construct: His6 (N); made in house; host or cells: Sf9 insect cells (baculovirus)
Procedure: as §1, §2

CDK1/cyclin B1 = molecular target: T4, CDK1/cyclin B1 (Homo sapiens, UniProt P06493); assay: CDK/cyclin kinase assay, CDK1/cyclin B1; format: biochemical; conditions: for inhibition at 1 µM: primary screening at 1 μM; for IC50: read-out: Kinase inhibition IC50 CDK1/B1
T4 construct: His6 (N); made in house; host or cells: Sf9 insect cells (baculovirus)
T4 sequence (P06493 whole entry): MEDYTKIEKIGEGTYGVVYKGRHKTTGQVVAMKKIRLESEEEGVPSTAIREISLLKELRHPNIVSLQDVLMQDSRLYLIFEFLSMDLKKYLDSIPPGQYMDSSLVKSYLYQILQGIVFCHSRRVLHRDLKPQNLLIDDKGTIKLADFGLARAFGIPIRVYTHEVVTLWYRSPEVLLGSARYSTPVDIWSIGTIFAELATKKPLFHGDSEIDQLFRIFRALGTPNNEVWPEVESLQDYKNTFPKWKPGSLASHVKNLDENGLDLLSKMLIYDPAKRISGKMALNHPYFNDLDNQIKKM
T4 sequence (P14635 whole entry partner): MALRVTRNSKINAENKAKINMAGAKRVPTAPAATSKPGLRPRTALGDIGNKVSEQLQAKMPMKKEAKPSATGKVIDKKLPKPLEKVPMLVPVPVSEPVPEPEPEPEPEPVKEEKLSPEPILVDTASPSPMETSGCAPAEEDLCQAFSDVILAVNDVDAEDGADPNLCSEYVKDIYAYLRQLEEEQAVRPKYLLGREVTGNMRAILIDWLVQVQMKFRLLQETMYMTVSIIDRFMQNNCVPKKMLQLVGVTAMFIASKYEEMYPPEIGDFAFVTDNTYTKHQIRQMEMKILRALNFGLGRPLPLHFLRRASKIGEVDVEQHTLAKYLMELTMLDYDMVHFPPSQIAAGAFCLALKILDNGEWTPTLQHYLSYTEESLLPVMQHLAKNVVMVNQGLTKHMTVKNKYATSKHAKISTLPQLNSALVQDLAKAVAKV
Procedure: as §1, §2

CDK4/cyclin D1 = molecular target: T5, CDK4/cyclin D1 (Homo sapiens, UniProt P11802); assay: CDK/cyclin kinase assay, CDK4/cyclin D1; format: biochemical; conditions: for IC50: read-out: Kinase inhibition IC50 CDK4/D1; for inhibition at 1 µM: primary screening at 1 μM
T5 construct: His6 (N); made in house; host or cells: CDK4: Sf9 insect cells (baculovirus); Cyclin D1: E. coli, Sf9
T5 sequence (P11802 whole entry): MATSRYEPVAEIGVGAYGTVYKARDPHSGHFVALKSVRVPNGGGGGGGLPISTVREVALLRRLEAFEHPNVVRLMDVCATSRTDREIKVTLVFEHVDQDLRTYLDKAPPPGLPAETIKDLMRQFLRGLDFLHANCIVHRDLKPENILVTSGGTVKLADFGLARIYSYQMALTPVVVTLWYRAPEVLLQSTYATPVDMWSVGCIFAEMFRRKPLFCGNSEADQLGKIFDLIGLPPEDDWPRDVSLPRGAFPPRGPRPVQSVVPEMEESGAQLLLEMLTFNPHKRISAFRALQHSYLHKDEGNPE
T5 sequence (P24385 whole entry partner): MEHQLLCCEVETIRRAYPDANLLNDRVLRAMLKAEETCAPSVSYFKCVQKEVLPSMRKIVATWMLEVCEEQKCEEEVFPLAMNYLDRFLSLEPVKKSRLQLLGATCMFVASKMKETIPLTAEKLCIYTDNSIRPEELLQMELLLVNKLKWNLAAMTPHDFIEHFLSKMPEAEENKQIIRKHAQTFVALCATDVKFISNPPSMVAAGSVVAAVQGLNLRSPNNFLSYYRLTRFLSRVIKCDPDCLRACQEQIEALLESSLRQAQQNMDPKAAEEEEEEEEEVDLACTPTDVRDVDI
Procedure: as §1, §2

[1] = tested on: glycogen synthase activity in HEK293 cells; assay: Glycogen synthase (GS) assay in HEK293 cells; format: cell-based, human; conditions: Homo sapiens; In HEK293 cells at [compound] = 5 μM (Table 2)
Procedure: Cells on 10 cm dishes (Human Embryonic Kidney (HEK) 293 cells, L6 rat myocytes, or 3T3 mouse adipocytes) were treated with different concentrations of GSK3-inhibitors or DMSO vehicle for 90 min. Incubation medium was removed and cells were washed with ice-cold phosphate-buffered saline (PBS) prior to lysis on ice in 50 mM HEPES, pH 7.5, 10 mM EDTA, 100 mM NaF, 5 mM DTT, protease inhibitor cocktail (Sigma). After a freeze/thaw cycle the samples are sonicated for 10 sec and centrifuged at 15,000 g for 10 min at 4° C. Lysate supernatants were snap-frozen on liquid nitrogen and stored at −80° C. Lysates were assayed for glycogen synthase activity in buffer (50 mM Tris-HCl, pH 7.8, 20 mM EDTA, 25 mM NaF, 5 mM DTT, 1% glycogen, 0.3 mM UDP-glucose and 0.06 μCi of [^14C]-UDP-glucose in the presence of 0.1 or 10 mM glucose-6-phosphate. The reaction was carried out for 30 min at 30° C. 70 μL of the reaction mixture (total volume 90 μL) were transferred to a GFC 96-well filter plate (bottom sealed with foil), containing 140 μL 96% ethanol. The GFC plate was incubated for 1 h on ice and than washed with 66% ethanol. To each well 100 μL scintillant liquid was added and the radioactivity of the samples was measured using a scintillation counter (Topcount, HP). Data are expressed as -fold increase in glycogen synthase activity ratios over those of control samples.

T1 sequence (G1T8E2 1-432): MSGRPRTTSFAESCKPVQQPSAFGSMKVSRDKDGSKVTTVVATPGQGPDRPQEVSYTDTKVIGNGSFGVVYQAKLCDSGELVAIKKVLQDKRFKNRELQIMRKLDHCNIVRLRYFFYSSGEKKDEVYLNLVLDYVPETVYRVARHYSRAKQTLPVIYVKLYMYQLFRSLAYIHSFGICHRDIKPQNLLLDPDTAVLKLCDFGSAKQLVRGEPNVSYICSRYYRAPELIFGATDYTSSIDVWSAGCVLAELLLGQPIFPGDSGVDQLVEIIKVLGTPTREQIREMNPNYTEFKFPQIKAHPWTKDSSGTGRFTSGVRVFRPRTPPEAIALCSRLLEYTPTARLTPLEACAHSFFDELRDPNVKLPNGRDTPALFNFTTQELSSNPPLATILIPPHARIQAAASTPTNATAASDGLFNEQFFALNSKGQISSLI

SMILES	IC50 (GSK-3β) [nM]	inhibition at 1 µM (CDK2/cyclin E) [%]	inhibition at 1 µM (CDK2/cyclin A) [%]	inhibition at 1 µM (CDK1/cyclin B1) [%]	IC50 (CDK4/cyclin D1) [nM]	inhibition at 1 µM (CDK4/cyclin D1) [%]	IC50 (CDK2/cyclin E) [nM]	IC50 (CDK2/cyclin A) [nM]	IC50 (CDK1/cyclin B1) [nM]	fold induction at 5 µM [1]
CCOC(=O)c1sc(-c2ccnc(Nc3ccc(Cl)nc3)n2)nc1O [XXIV, 2-[2-(6-Chloro-pyridin-3-ylamino)-pyrimidin-4-yl]-4-hydroxy-thiazole-5-carboxylic acid ethylester]	19	< 50	< 50	< 50	960	–	–	–	–	4.3 ± 0.32
Cc1nc(-c2ccnc(Nc3cccc(N)c3)n2)sc1C [VIII, N-[4-(4,5-Dimethyl-thiazol-2-yl)-pyrimidin-2-yl]-benzene-1,3-diamine]	3470	< 50	< 50	< 50	–	< 50	–	–	–	–
Cc1nc(-c2ccnc(Nc3ccc(Cl)c(C(F)(F)F)c3)n2)sc1C [Compound XI, (4-Chloro-3-trifluoromethyl-phenyl)-[4-(4,5-dimethyl-thiazol-2-yl)-pyrimidin-2-yl]-amine]	15600	< 50	< 50	< 50	–	< 50	–	–	–	–
c1cc(-c2nccs2)nc(Nc2ccc(N3CCCC3)nc2)n1 [XXIII, (6-Pyrrolidin-1-yl-pyridin-3-yl)-(4-thiazol-2-yl-pyrimidin-2-yl)-amine]	482	< 50	< 50	< 50	–	< 50	–	–	–	1.35 ± 0.07
OCCc1sc(-c2ccnc(Nc3ccc(Cl)nc3)n2)nc1O [XXVI, 2-[2-(6-Chloro-pyridin-3-ylamino)-pyrimidin-4-yl]-5-(2-hydroxy-ethyl)-thiazol-4-ol]	164	< 50	< 50	< 50	2080	–	–	–	–	5.2 ± 3.2
COc1ccc(Nc2nccc(-c3nccs3)n2)cn1 [XIII, (6-Methoxy-pyridin-3-yl)-(4-thiazol-2-yl-pyrimidin-2-yl)-amine]	910	–	–	–	> 100000	–	> 50000	> 100000	> 100000	1.5
Cc1nc(-c2ccnc(Nc3cccc(O)c3)n2)sc1C [IX, 3-[4-(4,5-Dimethyl-thiazol-2-yl)-pyrimidin-2-ylamino]-phenol]	1530	< 50	< 50	< 50	–	< 50	–	–	–	–
Cc1sc(-c2ccnc(Nc3ccc(Cl)cc3)c2)nc1O [XXII, 2-[2-(4-Chloro-phenylamino)-pyridin-4-yl]-5-methyl-thiazol-4-ol]	470	< 50	< 50	< 50	–	< 50	–	–	–	1.5 ± 0.4
Cc1sc(-c2ccnc(Nc3ccc(Cl)nc3)n2)nc1O [XXV, 2-[2-(6-Chloro-pyridin-3-ylamino)-pyrimidin-4-yl]-5-methyl-thiazol-4-ol]	80	< 50	< 50	< 50	–	–	–	–	–	2.1 ± 0.3

Further lines, with some results ahead:

IC50 (GSK-3β) [nM]	inhibition at 1 µM (CDK2/cyclin E) [%]	inhibition at 1 µM (CDK2/cyclin A) [%]	inhibition at 1 µM (CDK1/cyclin B1) [%]	IC50 (CDK4/cyclin D1) [nM]	inhibition at 1 µM (CDK4/cyclin D1) [%]	IC50 (CDK2/cyclin E) [nM]	IC50 (CDK2/cyclin A) [nM]	IC50 (CDK1/cyclin B1) [nM]	SMILES	fold induction at 5 µM [1]
12200	< 50	< 50	< 50	–	< 50	–	–	–	Cc1nc(-c2ccnc(Nc3cccc(C(F)(F)F)c3)n2)sc1C [Compound X, [4-(4,5-Dimethyl-thiazol-2-yl)-pyrimidin-2-yl]-(3-trifluoromethyl-phenyl)-amine]	–
5450	–	–	–	> 10000	–	> 1000	> 10000	> 10000	COc1ccc(Nc2nccc(-c3nc(C)c(C)s3)n2)cn1 [XVI, [4-(4,5-Dimethyl-thiazol-2-yl)-pyrimidin-2-yl]-(6-methoxy-pyridin-3-yl)-amine]	–
135	–	–	–	> 10000	–	> 1000	> 10000	> 10000	CCOC(=O)c1sc(-c2ccnc(Nc3ccc(Cl)cc3)n2)nc1O [VII, 2-[2-(4-Chloro-phenylamino)-pyrimidin-4-yl]-4-hydroxy-thiazole-5-carboxylic acid ethyl ester]	2.3
90	< 50	–	–	–	–	–	–	–	Cc1cc(Nc2nccc(-c3nccs3)n2)cnc1Cl [XXVII, (6-Chloro-5-methyl-pyridin-3-yl)-(4-thiazol-2-yl-pyrimidin-2-yl)-amine]	1.5 ± 0.4
2910	–	–	–	> 10000	–	> 10000	> 10000	> 10000	Cc1nc(-c2ccnc(Nc3ccc(Cl)nc3)n2)sc1C [XVII, (6-Chloro-pyridin-3-yl)-[4-(4,5-dimethyl-thiazol-2-yl)-pyrimidin-2-yl]-amine]	–
